According to patent US7951364B2, “CaR receptor as a mediator of migratory cell chemotaxis and/or chemokinesis” (The General Hospital Corporation, priority 2000, dated 2011):

Assays:
CD14^+ monocytes = experiment: Transmigration assay (monocyte chemotaxis, transwell); assay type: cell-based, human; settings: for Stimulation of transmigration: monocytes; for Inhibition of monocyte chemotaxis towards a positive gradient of Ca^++ by pretreatment: Ca^++ at 3 mM; for Interaction of chemokine with added/elevated Ca^++ on transmigration: chemokine in combination with elevated Ca^++; for Dependence of chemokine-induced chemotaxis of CD14^+ PBMC on extracellular calcium: positive concentration gradient of chemokine
Description: (§1) Preparation of peripheral blood CD14^+ monocytes. Low density cells were isolated from human and mouse peripheral blood using Ficoll-Hypaque (Pharmacia, Piscataway, N.J.). CD14^+ monocytes were purified by sorting on FACSVantage (Becton Dickinson, San Jose, Calif.) based on CD14 expression. Purified cells were incubated in either calcium-free medium (Hanks' Balanced Salt Solution 1×, CellGro, Hermdon. VA) or Iscove's Medium 1×(Mod) (CellGro, Herndon, Va.) which contains 1.5 mM Ca++. […] Cells were incubated for up to 24 hours in 5% CO2 humidified air. Monocytes were then detached from the plate using a cell scraper. All calcium concentrations indicated in the presentation of the data represent the total Ca^++ present in the basal medium plus any added Ca^++.
(§2) Transmigration assays. Transwells (5 μm pore size polycarbonate membrane, 12 mm diameter) (Costar, Corning, N.Y.) were used to assess cell migration using an established methodology (25). The concentration of Ca^++ in IMDM (CellGro, Herndon, Va.) in the upper and lower chambers of the transwell were adjusted according to a checkerboard analysis of chemotaxis. Calcium concentrations varied from 0 mM to 6.5 mM. Purified monocytes (1×10^4) were then placed in the top chamber with 150 μl of IMDM (CellGro, Hemdon, Va.). 500 μl of the medium was added to the bottom of the well and supplemented with varying concentrations of Ca^++ or with Ca^++ plus 10 ng/ml of MCP-1, 100 ng/ml of SDF-1α or 10 ng/ml of MIP-1α (PeproTech, Rocky Hills, N.Y.). Cells were incubated at 37° C. for 3 hours. To study inhibition of chemotaxis, cells were subsequently incubated with wortmannin (1 μM for 20 minutes at 37° C.), herbimycin (1 μM for 20 minutes at 37° C.) or genistein (1 μg/ml for 20 minutes at 37° C.), before their use in transmigration assays. At the end of the experiment, cells were then harvested from the lower chamber and counted using a hemocytometer.

[1] = test system: monocytes (Mac-1 positive mononuclear cells); experiment: Biologic activity in vivo: subcutaneous injection, monocyte infiltration at injection site; design: species or system C57BL/6 mice; settings: tissue excised 18 hours later, CaCl2 5.0 mM, NPS R-467 10 μM
Description: Biologic activity of ionic calcium in vivo. C57BL/6 mice (Jackson Laboratories) were injected subcutaneously at a marked, shaved spot on the abdomen with 20 μl of 5 mM CaCl2 or 20 μl of MCP-1 at a concentration of 10 ng/ml, with a combination of MCP-1 and 5 mM CaCl2 or with 10 μM NPS R-467 in PBS. Control mice were injected subcutaneously with 20 μl PBS alone. All subcutaneously injected agents contained less than 0.004 ng/ml of LPS by the limulus assay (Sigma) as previously described (Bleul, C. C., et al., J Exp Med, 1996, 184:1101-1109). Mice were sacrificed by CO2 asphyxiation 18 hours after injection, and injection sites were excised, snap-frozen and 4 μm cryosections were obtained and stained with hematoxylin and eosin. Immunocytochemistry was performed on the frozen sections using alkaline phosphatase-conjugated Mac-1 antibody (Pharmingen) as previously described and assessed by light microscopy (Bleul, C. C., et al., supra).

CaR [2] = target: T1, CaR (Homo sapiens, UniProt P41180); experiment: Cytosolic calcium changes in purified monocytes (Indo-1/AM, flow cytometry); assay type: cell-based; settings: for Increase in cytosolic calcium: 1 μM in the presence of 1.5 mM Ca^++; for Stimulation of cytosolic calcium responses: monocytes
T1 construct: endogenous in cells; host or cells: peripheral blood CD14+ monocytes, sorted by FACS
T1 sequence (P41180 20-1078): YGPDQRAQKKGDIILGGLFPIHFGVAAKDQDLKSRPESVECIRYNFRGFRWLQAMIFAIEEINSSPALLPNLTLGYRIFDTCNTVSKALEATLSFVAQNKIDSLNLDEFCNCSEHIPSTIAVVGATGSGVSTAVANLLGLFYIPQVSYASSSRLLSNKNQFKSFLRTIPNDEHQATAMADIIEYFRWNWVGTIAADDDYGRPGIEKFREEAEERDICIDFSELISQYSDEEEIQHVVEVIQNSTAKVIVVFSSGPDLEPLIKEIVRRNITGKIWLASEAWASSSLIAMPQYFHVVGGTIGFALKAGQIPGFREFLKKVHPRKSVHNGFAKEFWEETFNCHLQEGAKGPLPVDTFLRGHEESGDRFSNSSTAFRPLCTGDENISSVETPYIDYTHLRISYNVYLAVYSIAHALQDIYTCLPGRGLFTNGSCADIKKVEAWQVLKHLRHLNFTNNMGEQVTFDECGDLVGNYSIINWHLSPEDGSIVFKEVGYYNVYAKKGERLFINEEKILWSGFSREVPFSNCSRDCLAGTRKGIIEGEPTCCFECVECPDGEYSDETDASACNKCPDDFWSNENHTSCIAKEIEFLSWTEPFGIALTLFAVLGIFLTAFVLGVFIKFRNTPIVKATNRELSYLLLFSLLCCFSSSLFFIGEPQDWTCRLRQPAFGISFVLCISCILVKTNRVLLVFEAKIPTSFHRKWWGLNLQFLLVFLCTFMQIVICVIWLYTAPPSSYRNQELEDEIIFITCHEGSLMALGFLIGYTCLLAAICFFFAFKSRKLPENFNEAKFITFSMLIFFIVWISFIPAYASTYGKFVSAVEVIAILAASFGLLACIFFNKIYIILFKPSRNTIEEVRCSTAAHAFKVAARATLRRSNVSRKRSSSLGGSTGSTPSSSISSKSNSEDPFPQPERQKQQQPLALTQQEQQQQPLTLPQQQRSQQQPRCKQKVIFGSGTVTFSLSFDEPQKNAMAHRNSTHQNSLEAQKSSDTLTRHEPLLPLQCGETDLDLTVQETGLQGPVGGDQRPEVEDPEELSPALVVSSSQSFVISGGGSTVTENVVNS
Description: as §1
Cytosolic calcium changes. Purified monocytes were loaded with Indo-1/AM (Molecular Probes, Eugene, Oreg.). Cells were collected on FACSVantage for 0.30 sec to establish a baseline emission value for Indo-1/AM. […] Data acquisition then continued for up to 5 minutes.

CCR-2 = experiment: Chemokine receptor expression on monocytes by flow cytometry: CCR-2; assay type: cell-based, human; settings: for Mean fluorescent intensity -CCR-2 Mean +/− s.e.m.: CD14^+ monocytes, agonist 1 μM in the presence of 1.5 mM Ca^++
Description: (§3) Chemokine receptor expression and flow cytometric analysis.
Table 1: Exposure of CD14^+ monocytes to Ca^++ enhances CCR2 expression in a dose dependent manner. Monocytes were exposed to varying concentrations of Ca^++ and to the selective CaR activator, NPS R-467 (1 μM), or to NPS S-467 (1 μM) in the presence of 1.5 mM Ca^++. The median fluorescence intensity for CCR2 expression was measured for each Ca^++ concentration and in the presence of NPS R-467 or S-467. Mean values +/−s.e.m. from three independent experiments are shown.

CaR [3] = experiment: CaR surface expression on monocytes after exposure to chemokines; assay type: cell-based, human; settings: monocytes after chemokine stimulation; untreated 361+/−25
Text: as §3
In order to assess whether there was reciprocal regulation of the CaR by chemokine receptors, we evaluated CaR surface expression on cells before and after exposure to the chemokines, SDF-1α or MCP-1. The mean fluorescence intensity of CaR expression was 361+/−25 (mean+/−s.e.m.) units for untreated monocytes and rose to 673+/−59 following MCP-1 stimulation. Monocytic expression of CaR rose to 519+/−48 with SDF-1α a treatment.

[4] = test system: mononuclear cells derived from neonatal CaR −/−, +/− or +/+ mice; experiment: Transmigration assay with cells from CaR knockout and wild-type mice; assay type: cell-based, mouse; settings: CaR −/−, +/− or +/+ cells
Description: as §2
CaR−/− were bred as previously described (Ho, C., et al., Nat Genet 1995, 11:389-94). To produce CaR−/− mice for this study, heterozygote mice were intercrossed. The mice studied were either 129S6/svev or 129S6/svev/Swiss Webster mixed genetic background. […]

human CD34^+ cells = experiment: In vitro assays of human CD34^+ hematopoietic progenitor cells; assay type: cell-based; settings: in the setting of CaR activation
Text: Calcium ions effect Hematopoietic Progenitor Cells. We also assessed the effects of calcium, through its interaction with the calcium sensing receptor (CaR) using in vitro assays of human CD34^+ cells. […] Therefore, calcium participates in maintaining candidate stem cells in a primitive, undifferentiated state. […] This was accompanied by a decrease in the level of LTC-ICs in the bone marrow, but an increase in the level of CFU-Cs, with a converse increase in hematopoietic stem cells in is the peripheral blood.

Question: Which results are given for `COc1cccc([C@@H](C)NCCCc2ccccc2)c1` [NPS R-467, reference compound]?
Answer: Potency of R-467 vs. S-467 in enhancing actions of high Ca^++ (cytosolic calcium, chemotaxis) (CD14^+ monocytes): greater potency; Stimulation of transmigration (CD14^+ monocytes): Stimulation; Accumulation of mononuclear cells staining positive for Mac-1 at injection site [1]: Accumulation; Increase in cytosolic calcium (CaR [2]): Sustained increases; Stimulation of cytosolic calcium responses (CaR [2]): Stimulation; Mean fluorescent intensity -CCR-2 Mean +/− s.e.m. (CCR-2): 460 +/− 52

Question: How did the Stimulation of transmigration (CD14^+ monocytes) turn out when `COc1cccc([C@H](C)NCCCc2ccccc2)c1` [NPS S-467, reference compound] was run?
Answer: Stimulation

Question: And the “Increase in cytosolic calcium” value (CaR [2])?
Answer: Sustained increases

Question: What about the “Stimulation of cytosolic calcium responses” value (CaR [2]) of the same molecule?
Answer: Stimulation

Question: And the “Mean fluorescent intensity -CCR-2 Mean +/− s.e.m.” value (CCR-2)?
Answer: 417 +/− 48

Question: For `C[C@@H]1C[C@@H]([C@H](O)CC2CC(=O)NC(=O)C2)C(=O)[C@@H](C)C1` [cyclohexamide, reference compound], which “Effect on the Ca^++-mediated upregulation of CCR-2” value (CCR-2; inhibition of new protein synthesis) is on record?
Answer: no effect

Question: For `O=c1c(-c2ccc(O)cc2)coc2cc(O)cc(O)c12` [genistein, reference compound], which “Inhibition of Ca^++-induced monocyte chemotaxis by pretreatment” value (CD14^+ monocytes) is on record?
Answer: inhibitable

Question: What about the “Inhibition of monocyte chemotaxis towards a positive gradient of Ca^++ by pretreatment” value (CD14^+ monocytes) of the same molecule?
Answer: inhibitable

Question: With `CO[C@H]1[C@@H](OC)C[C@H](C)[C@@H](OC)C2=CC(=O)C=C(NC(=O)/C(C)=C/C=C\[C@H](OC)[C@@H](OC(N)=O)/C(C)=C/[C@@H]1C)C2=O` [herbimycin, reference compound] as the molecule, how does the “Inhibition of Ca^++-induced monocyte chemotaxis by pretreatment” value (CD14^+ monocytes) read?
Answer: inhibitable

Question: And the “Inhibition of monocyte chemotaxis towards a positive gradient of Ca^++ by pretreatment” value (CD14^+ monocytes)?
Answer: inhibitable

Question: For `NCCCNCCCCNCCCN` [spermine, reference compound], which Stimulation of transmigration (CD14^+ monocytes) is on record?
Answer: Stimulation

Question: What about the “Stimulation of cytosolic calcium responses” value (CaR [2]) of the same molecule?
Answer: Stimulation

Question: What does the source list for “MCP-1: chemokine (PeproTech), ligand of CCR-2”?
Answer: Interaction of chemokine with added/elevated Ca^++ on transmigration (CD14^+ monocytes): synergistic; Dependence of chemokine-induced chemotaxis of CD14^+ PBMC on extracellular calcium (CD14^+ monocytes): dependent upon extracellular calcium; Accumulation of mononuclear cells staining positive for Mac-1 at injection site [1]: Accumulation; Mean fluorescence intensity of CaR expression (mean+/−s.e.m.) (CaR [3]): 673+/−59 units; Chemotaxis of mouse mononuclear cells [4]: capable of chemotaxing

Question: How did the “Interaction of chemokine with added/elevated Ca^++ on transmigration” value (CD14^+ monocytes) turn out when SDF-1α was run?
Answer: no synergistic effect

Question: And the “Dependence of chemokine-induced chemotaxis of CD14^+ PBMC on extracellular calcium” value (CD14^+ monocytes)?
Answer: induced migration independent of calcium

Question: And the “Mean fluorescence intensity of CaR expression (mean+/−s.e.m.)” value (CaR [3])?
Answer: 519+/−48 units

Question: What about the “Chemotactic responses of primitive hematopoietic cells to SDF-1α” value (human CD34^+ cells) of the same molecule?
Answer: attenuated

B1: MIP-1α: chemokine (PeproTech) (protein, UniProt P10147 24-92, looked up)
C-C motif chemokine 3: SLAADTPTACCFSYTSRQIPQNFIADYFETSSQCSKPGVIFLTKRSRQVCADPSEEWVQKYVSDLELSA
Question: With B1 as the molecule, how does the “Interaction of chemokine with added/elevated Ca^++ on transmigration” value (CD14^+ monocytes) read?
Answer: no synergistic effect

Question: What about the “Dependence of chemokine-induced chemotaxis of CD14^+ PBMC on extracellular calcium” value (CD14^+ monocytes) of the same molecule?
Answer: induced migration independent of calcium
